Where only a bound is given, the exact number is not on record here.

The target in this test is T1, human PDE10A2 (Homo sapiens, UniProt Q9Y233).
T1 construct: made in house; host or cells: AD293 cells, transiently transfected; The cytosolic supernatant of the lysate served as the enzyme
T1 sequence (Q9Y233 267-1055): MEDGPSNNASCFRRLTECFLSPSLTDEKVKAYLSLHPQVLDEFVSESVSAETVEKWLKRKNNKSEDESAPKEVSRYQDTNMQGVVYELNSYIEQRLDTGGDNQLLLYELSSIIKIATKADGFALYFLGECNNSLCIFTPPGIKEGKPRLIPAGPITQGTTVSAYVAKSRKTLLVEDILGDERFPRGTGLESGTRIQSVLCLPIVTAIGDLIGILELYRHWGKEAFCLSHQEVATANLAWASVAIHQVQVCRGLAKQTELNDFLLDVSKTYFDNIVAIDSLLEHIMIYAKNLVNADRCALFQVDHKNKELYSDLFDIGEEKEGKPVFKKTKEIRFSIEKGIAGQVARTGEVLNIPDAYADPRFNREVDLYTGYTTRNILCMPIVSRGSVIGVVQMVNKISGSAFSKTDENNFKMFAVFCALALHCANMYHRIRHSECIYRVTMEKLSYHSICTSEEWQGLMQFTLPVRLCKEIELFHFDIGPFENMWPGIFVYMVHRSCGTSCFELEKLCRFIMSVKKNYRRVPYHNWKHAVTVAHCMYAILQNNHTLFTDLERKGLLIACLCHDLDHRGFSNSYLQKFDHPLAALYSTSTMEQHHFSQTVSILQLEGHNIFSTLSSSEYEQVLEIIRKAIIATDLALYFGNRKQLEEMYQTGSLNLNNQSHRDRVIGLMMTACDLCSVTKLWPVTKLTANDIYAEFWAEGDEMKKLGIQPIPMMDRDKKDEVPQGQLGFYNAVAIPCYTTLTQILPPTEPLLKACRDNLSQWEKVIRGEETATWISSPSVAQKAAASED
As to the kind of experiment: PDE10 fluorescence polarization (IMAP FP) inhibition assay. Particulars: apparent inhibition constant; FAM-labeled cAMP 50 nM; lysate of AD293 cells transfected with human PDE10A2; room temperature; read-out: PDE10a Ki. The test is classed as biochemical. How it is done: The activity of the compounds in accordance with the present invention as PDE10 inhibitors may be readily determined without undue experimentation using a fluorescence polarization (FP) methodology that is well known in the art (Huang, W., et al., J. Biomol Screen, 2002, 7: 215).
In a typical experiment the PDE 10 inhibitory activity of the compounds of the present invention was determined in accordance with the following experimental method. PDE 10A2 was amplified from human fetal brain cDNA (Clontech, Mountain View, Calif.) using a forward primer corresponding to nucleotides 56-77 of human PDE10A2 (Accession No. AF127480, Genbank Identifier 4894716), containing a Kozak consensus sequence, and a reverse primer corresponding to nucleotides 2406-2413 of human PDE10A2 (Accession No. AF127480, Genbank Identifier 4894716). Amplification with Easy-A polymerase (Stratagene, La Jolla, Calif.) was 95° C. for 2 minutes followed by thirty three cycles of 95° C. for 40 seconds, 55° C. for 30 seconds, and 72° C. for 2 minutes 48 seconds. Final extension was 72° C. for 7 minutes. The PCR product was TA cloned into pcDNA3.2-TOPO (Invitrogen, Carlsbad, Calif.) according to standard protocol. AD293 cells with 70-80% confluency were transiently transfected with human PDE10A2/pcDNA3.2-TOPO using Lipofectamine 2000 according to manufacturer specifications (Invitrogen, Carlsbad, Calif.). Cells were harvested 48 hours post-transfection and lysed by sonication (setting 3, 10×5 sec pulses) in a buffer containing 20 mM HEPES, 1 mM EDTA and protease inhibitor cocktail (Roche). Lysate was collected by centrifugation at 75,000×g for 20 minutes. Supernatant containing the cytoplasmic fraction was used for evaluation of PDE10A2 activity. The fluorescence polarization assay for cyclic nucleotide phosphodiesterases was performed using an IMAP® FP kit supplied by Molecular Devices, Sunnyvale, Calif. (product # R8139). IMAP® technology has been applied previously to phosphodiesterase assays (Huang, W., et al., J. Biomol Screen, 2002, 7: 215). Assays were performed at room temperature in 384-well microtiter plates with an incubation volume of 20.2 μL. Solutions of test compounds were prepared in DMSO and serially diluted with DMSO to yield 8 μL of each of 10 solutions differing by 3-fold in concentration, at 32 serial dilutions per plate. 100% inhibition is determined using a known PDE 10 inhibitor, which can be any compound that is present at 5,000 times its Ki value in the assay described as follows, such as papaverine (see Siuciak, et al. Neuropharmacology (2006) 51:386-396; Becker, et al. Behav Brain Res (2008) 186(2):155-60; Threlfell, et al., J Pharmacol Exp Ther (2009) 328(3):785-795), 2-{4-[pyridin-4-yl-1-(2,2,2-trifluoroethyl)-1H-pyrazol-3-yl]phenoxymethyl}quinoline succinic acid or 2-[4-(1-methyl-4-pyridin-4-yl-1H-pyrazol-3-yl)-phenoxymethyl]quinoline succinic acid (see Schmidt, et al. J Pharmacol Exp Ther (2008) 325:681-690; Threlfell, et al., J Pharmacol Exp Ther (2009) 328(3): 785-795). 0% of inhibition is determined by using DMSO (1% final concentrations). A Labcyte Echo 555 (Labcyte, Sunnyvale, Calif.) is used to dispense 200 nL from each well of the titration plate to the 384 well assay plate. A solution of enzyme ( 1/7000 dilution from aliquots; sufficient to produce 20% substrate conversion) and a separate solution of FAM-labeled cAMP PDE from Molecular Devices (product # R7506), at a final concentration of 50 nM are made in the assay buffer (10 mM Tris HCl, pH 7.2, 10 mM MgCl2, 0.05% NaN3 0.01% Tween-20, and 1 mM DTT). The enzyme is added to the assay plates by the addition of 10 μL of enzyme solution to each well, shaken to mix and incubated at room temperature for 60 minutes. The substrate is then added to the assay plates by the addition of 10 μL of substrate solution to each well, shaken to mix, and incubated at room temperature for 60 minutes. […]
Background: In fluorescence polarisation assays a small probe gives low polarisation when free and higher when bound to something large.
As to `COc1ccc(Cc2nc(N)nn2-c2cc(=O)n(Cc3cnc(N4CCNCC4)cn3)cn2)cc1OC` [1-58, 6-(3-amino-5-(3,4-dimethoxybenzyl)-1H-1,2,4-triazol-1-yl)-3-((5-(piperazin-1-yl)pyrazin-2-yl)methyl)pyrimidin-4(3H)-one], the Ki came out at 37 nM.
With `COc1ccc(Cc2nc(N)nn2-c2cc(=O)n(CC3(c4ccccc4)CC3(F)F)cn2)cc1OC` (centres unmarked) [1-59, 6-(3-amino-5-(3,4-dimethoxybenzyl)-1H-1,2,4-triazol-1-yl)-3-((2,2-difluoro-1-phenylcyclopropyl)methyl)pyrimidin-4(3H)-one], the Ki was determined as 220 nM.
As for `COc1ccc(Cc2nc(N)nn2-c2cc(OC(C)C)ncn2)cc1OC` [1-60, 5-(3,4-dimethoxybenzyl)-1-(6-isopropoxypyrimidin-4-yl)-1H-1,2,4-triazol-3-amine], the Ki is 370 nM.
On to `COc1ccc(Cc2nc(N)nn2-c2cc(OC3CCCCC3)ncn2)cc1OC` [1-61, 1-(6-(cyclohexyloxy)pyrimidin-4-yl)-5-(3,4-dimethoxybenzyl)-1H-1,2,4-triazol-3-amine], for which the Ki was 19 nM.
For `COc1ccc(Cc2nc(N)nn2-c2cc(OCC3CCC3)ncn2)cc1OC` [1-62, 1-(6-(cyclobutylmethoxy)pyrimidin-4-yl)-5-(3,4-dimethoxybenzyl)-1H-1,2,4-triazol-3-amine], the Ki amounted to 8.6 nM.
On to `CCCOc1cc(-n2nc(N)nc2Cc2ccc(OC)c(OC)c2)ncn1` [1-63, 5-(3,4-dimethoxybenzyl)-1-(6-propoxypyrimidin-4-yl)-1H-1,2,4-triazol-3-amine], for which the Ki turned out to be 35 nM.
For `COc1ccc(Cc2nc(N)nn2-c2cc(OCC(C)(C)C)ncn2)cc1OC` [1-64, 5-(3,4-dimethoxybenzyl)-1-(6-(neopentyloxy)pyrimidin-4-yl)-1H-1,2,4-triazol-3-amine], the Ki is 13 nM.
Under `COc1ccc(Cc2nc(N)nn2-c2cc(OCC3CC3c3ccccc3)ncn2)cc1OC` (centres unmarked) [1-67, 5-(3,4-dimethoxybenzyl)-1-(6-((2-phenylcyclopropyl)methoxy)pyrimidin-4-yl)-1H-1,2,4-triazol-3-amine] stands 320 nM; under `COc1ccc(Cc2nc(N)nn2-c2cc(OCc3ccc4ccccc4n3)ncn2)cc1OC` [1-68, 5-(3,4-dimethoxybenzyl)-1-(6-(quinolin-2-ylmethoxy)pyrimidin-4-yl)-1H-1,2,4-triazol-3-amine], 760 nM.
As for `COc1ccc(Cc2nc(N)nn2-c2cc(=O)n(C(C)C)cn2)cc1OC` [1-69, 6-(3-amino-5-(3,4-dimethoxybenzyl)-1H-1,2,4-triazol-1-yl)-3-isopropylpyrimidin-4(3H)-one], the Ki came to 540 nM.
As for `COc1ccc(Cc2nc(N)nn2-c2cc(=O)n(CC3CCC3)cn2)cc1OC` [1-70, 6-(3-amino-5-(3,4-dimethoxybenzyl)-1H-1,2,4-triazol-1-yl)-3-(cyclobutylmethyl)pyrimidin-4(3H)-one], the Ki came to 640 nM.
With `CCCn1cnc(-n2nc(N)nc2Cc2ccc(OC)c(OC)c2)cc1=O` [1-71, 6-(3-amino-5-(3,4-dimethoxybenzyl)-1H-1,2,4-triazol-1-yl)-3-propylpyrimidin-4(3H)-one], the Ki was determined as 620 nM.
Turning to `COc1ccc(Cc2nc(N)nn2-c2cc(=O)n(Cc3nc4ccccc4s3)cn2)cc1OC` [1-73, 6-(3-amino-5-(3,4-dimethoxybenzyl)-1H-1,2,4-triazol-1-yl)-3-(benzo[d]thiazol-2-ylmethyl)pyrimidin-4(3H)-one], the Ki is < 3.8 nM.
Consider `COc1ccc(Cc2nc(N)nn2-c2cc(=O)n(Cc3ccc4ccccc4n3)cn2)cc1OC` [1-75, 6-(3-amino-5-(3,4-dimethoxybenzyl)-1H-1,2,4-triazol-1-yl)-3-(quinolin-2-ylmethyl)pyrimidin-4(3H)-one], for which the Ki came to 64 nM.
Under `COc1ccc(CNc2nc(Cc3ccc(OC)c(OC)c3)n(-c3cc(Oc4ccccn4)nc(C)n3)n2)cc1` [1-76, 5-(3,4-dimethoxybenzyl)-N-(4-methoxybenzyl)-1-(2-methyl-6-(pyridin-2-yloxy)pyrimidin-4-yl)-1H 1,2,4-triazol-3-amine] stands < 3.8 nM; under `COc1ccc(CNc2nc(Cc3ccc(OC)c(OC)c3)n(-c3cc(Oc4cccnc4)nc(C)n3)n2)cc1` [1-77, 5-(3,4-dimethoxybenzyl)-N-(4-methoxybenzyl)-1-(2-methyl-6-(pyridin-3-yloxy)pyrimidin-4-yl)-1H-1,2,4-triazol-3-amine], 1000 nM.
As to `COc1ccc(Cc2nc(N)nn2-c2cc(Oc3cccnc3)nc(C)n2)cc1OC` [1-79, 5-(3,4-dimethoxybenzyl)-1-(2-methyl-6-(pyridin-3-yloxy)pyrimidin-4-yl)-1H-1,2,4-triazol-3-amine], the Ki was determined as 130 nM.
Regarding `COc1ccc(CNc2nc(Cc3ccc(OC)c(OC)c3)n(-c3cc(Oc4ccccn4)nc(C)n3)n2)cc1` [1-80, 5-(3,4-dimethoxybenzyl)-N-(4-methoxybenzyl)-1-(2-methyl-6-(pyridin-2-yloxy)pyrimidin-4-yl)-1H-1,2,4-triazol-3-amine], the Ki stood at 490 nM.
For the compound `COc1ccc(Cc2nc(N)nn2-c2cc(Oc3ccc4ccccc4n3)nc(C)n2)cc1OC` [1-83, 3-amino-5-(3,4-dimethoxybenzyl)-1-(2-methyl-6-(quinolin-2-yloxy)pyrimidin-4-yl)-1H-1,2,4-triazole-2,4-diium], the Ki was 47 nM.
On to `COc1ccc(CNc2nc(Cc3ccc(OC)c(OC)c3)n(-c3cc(C#Cc4ccccn4)nc(C)n3)n2)cc1` [1-84, 5-(3,4-dimethoxybenzyl)-N-(4-methoxybenzyl)-1-(2-methyl-6-(pyridin-2-ylethynyl)pyrimidin-4-yl)-1H-1,2,4-triazol-3-amine], for which the Ki was determined as 19 nM.

The values above are taken from US20130225583A1, “SUBSTITUTED AMINO-TRIAZOLYL PDE10 INHIBITORS” (priority 2010, published 2013).
